Data published in US7776826B2, “Method for fostering bone formation and preservation” (Unigene Laboratories, Inc., priority 2004, dated 2010).

What was measured:
Male Sprague-Dawley rats [1] = experiment: High resolution radiograms of left and right femurs, Groups K-R; assay type: in vivo, rat; conditions: left femur with bmx, agent daily for 21 days
Source text: (§1) FIG. 10 (a-b) presents high resolution radiograms of the left and right femurs, respectively, from an additional series of experiments on additional groups of male Sprague-Dawley rats (6 rats per group) aged 9 weeks which were sacrificed and tested after 21 days (3 weeks). The various groups were subjected to the following treatment modalities: Group K—control day 0; Group L—control day 21; Group M—bone marrow ablation (bmx) day 0; Group N—sham day 21; Group O— bmx+phosphate buffer saline (PBS) daily for 21 days; Group P—bmx+PTH[1-34]-NH2 daily for 21 days; Group Q—bmx+ parathyroid hormone related peptide (PTHRP) daily for 21 days; and Group R—bmx+rat α-calcitonin gene related peptide (CGRP) daily for 21 days;
FIG. 10 (a-b) presents a set of high resolution radiograms of the entire left and right femurs of additional (to those described above) groups of rats, injected daily for a designated term with one or more of the following agents: phosphate buffer saline (PBS); parathyroid hormone (PTH[1-34]-NH2); parathyroid hormone related peptide (PTHrP); and calcitonin gene related peptide (CGRP). The rats chosen for test subjects were subjected to the following treatment modalities (as indicated in the lower left corner of each of the radiograms): control day 0; control day 21; bone marrow ablation (bmx) day 0; sham day 21; bmx followed by injection of PBS buffer daily for 21 days; bmx followed by injection of PTH daily for 21 days; bmx followed by injection of PTHrP daily for 21 days; and bmx followed by injection of CGRP daily for 21 days.
As shown by FIG. 10(a), the best results, i.e., the greatest bone density, was obtained in the left femur wherein the effect of the bone marrow ablation overlapped with that attributable to the administration of the various anabolic agents. As in the case of FIG. 3, the lighter, i.e, more radio-opaque, areas indicate the locations of the greatest additional bone growth.

Male Sprague-Dawley rats [2] = experiment: pQCT analysis of left and right femoral shafts at day 21, Groups K-R; assay type: in vivo, rat
Source text: as §1
FIG. 11 (a-d) are graphical representations of the results of Peripheral Quantitative Computerized Tomography (PQCT) analyses of, respectively, the left (ablated) and right (non-ablated) femoral shafts of the rats from Groups K-R (see description of FIG. 10). FIGS. 11(a) and 11(b) illustrate the trabecular bone density observed in, respectively the left and right femoral shafts at day 21; whereas, FIGS. 11(c) and 11(d) illustrate the total bone density of, respectively, the left and right femoral shafts at the same interval. The meanings of the abbreviations used in FIGS. 11(a-d) are identical to those described above with regard to FIG. 10. […] [+=p value<0.01 vs. sham; *=p value<0.01 vs. bmx+PTH; **=p value<0.01 vs. bmx+PTH; and #=p value<0.05 vs. PBS];
An additional series of experiments was thereafter carried out with additional groups of rats (K-R) in order to (1) measure the effect of additional bone anabolic agents, i.e., other than parathyroid hormone (PTH[1-34]-NH2) and calcitonin, as well as to compare the effect(s) achieved with such parathyroid hormone with those obtained with the use of alternate anabolic agents, including parathyroid hormone related peptide (PTHrP) and calcitonin gene related peptide (CGRP). As in the case of the analyses discussed above with regard to FIGS. 3-9, in the animals tested only the left femur underwent the bone marrow ablation (bmx) procedure, i.e., there was no ablation of the right femur. Thus, as noted above, any views of the right femur in the figures described below indicating bone marrow ablation (bmx) as a treatment modality should be taken to mean that such treatment was applied to the corresponding left femur. Further, as was additionally the case above, the samples described below with regard to FIGS. 10-13 were taken from the femur shafts, rather than the corresponding distal epiphysis as in the case of FIGS. 1 and 2. The figures discussed below depict the results of end-point studies wherein the measurements were taken only at the 21 day end-point.
FIG. 11 (a-d) graphically illustrates, by means of a bar graph, the improvements in trabecular bone density and, to some extent, total bone density, in the left femoral shaft of rats subjected to the treatment modalities described above with regard to FIG. 10 (a-b); that is, control day 0; bmx day 0; control day 21; sham day 21; bmx+PBS on day 21; bmx+PTH on day 21; bmx+PTHrP on day 21; and bmx+CGRP on day 21. Again, this is attributable that (only) the left femur was subjected to the bmx treatment, and thus was the only femur wherein the effects of such bmx treatment overlapped with that of the systemic treatment with the bone anabolic agent. […] In contrast to the values obtained for the left femur, no significant amount of bone was formed in the right femur, notwithstanding whether it is trabecular bone density or total bone density which is being measured. This lack of new bone is, furthermore, attributable to the fact that the right femur had not been subjected to the bone marrow ablation (bmx) treatment.

[3] = ablated femur, day 21, agent daily for 21 days, Groups K-R
[4] = non-ablated femur, day 21, agent daily for 21 days, Groups K-R

**Q.** What does the source list for PTH[1-34]-NH2?
**A.** bone density on radiograms, in words (Male Sprague-Dawley rats [1]): best results; Left femoral shaft Total density mean (Male Sprague-Dawley rats [2]; [3]): 1100.2 mg/mL; Left femoral shaft Trabecular density mean (Male Sprague-Dawley rats [2]; [3]): 540.7 mg/mL; trabecular bone density of left femoral shaft, in words (Male Sprague-Dawley rats [2]; bmx, day 21): significantly improved; Right femoral shaft Total density mean (Male Sprague-Dawley rats [2]; [4]): 899.5 mg/mL; Right femoral shaft Trabecular density mean (Male Sprague-Dawley rats [2]; [4]): 128.3 mg/mL
